Source: US20260262643A1, “HERBICIDAL BENZOXAZINES” (FMC CORPORATION, priority 2022, published 2026)

How the values were obtained:
blackgrass [1] = experiment: Test C preemergence; format: in vivo, Alopecurus myosuroides
Method in brief: (§1)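 Greenhouse herbicide screen, 10-day duration. Test chemicals in solvent/surfactant blend were sprayed onto soil at sowing (pre) or onto 2–10 cm seedlings at one to two leaves (post); injury scored visually against controls, 0 no effect to 100 complete control.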

barnyardgrass [2] = experiment: Test C preemergence; format: in vivo, Echinochloa crusgalli
Method in brief: as §1

kochia [3] = experiment: Test C preemergence; format: in vivo, Bassia scoparia
Method in brief: as §1

oat, wild [4] = experiment: Test C postemergence; format: in vivo, Avena fatua; details: 10 days, 0 to 100 scale (0 no effect, 100 complete control)
Method in brief: as §1

kochia [5] = experiment: Test C postemergence; format: in vivo, Bassia scoparia; details: 10 days, 0 to 100 scale (0 no effect, 100 complete control)
Method in brief: as §1

corn [6] = experiment: Test C postemergence; format: in vivo, Zea mays; details: 10 days, 0 to 100 scale (0 no effect, 100 complete control)
Method in brief: as §1

ragweed [7] = experiment: Test C postemergence; format: in vivo, Ambrosia artemisiifolia; details: 10 days, 0 to 100 scale (0 no effect, 100 complete control)
Method in brief: as §1

ragweed [8] = experiment: Test C preemergence; format: in vivo, Ambrosia artemisiifolia
Method in brief: as §1

soybean [9] = experiment: Test C postemergence; format: in vivo, Glycine max; details: 10 days, 0 to 100 scale (0 no effect, 100 complete control)
Method in brief: as §1

wheat [10] = experiment: Test C preemergence; format: in vivo, Triticum aestivum
Method in brief: as §1

barnyardgrass [11] = experiment: Test D flooded paddy test; format: in vivo, Echinochloa crus-galli; details: 250 g ai/ha, applied to paddy water, visual rating after 13 to 14 days, scale 0 to 100 (0 no effect, 100 complete control)
Method in brief: (§2)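 Post-flood water application at the 2-leaf stage; 3 cm flood depth kept constant; visual control rating 0–100 after 13–14 days greenhouse growth.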

galium = experiment: Test C postemergence; format: in vivo, Galium aparine; details: 10 days, 0 to 100 scale (0 no effect, 100 complete control)
Method in brief: as §1

horseweed = experiment: Test C postemergence; format: in vivo, Erigeron canadensis; details: 10 days, 0 to 100 scale (0 no effect, 100 complete control)
Method in brief: as §1

ryegrass, Italian [12] = experiment: Test C preemergence; format: in vivo, Lolium multiflorum
Method in brief: as §1

pigweed, palmer [13] = experiment: Test C postemergence; format: in vivo, Amaranthus palmeri; details: 10 days, 0 to 100 scale (0 no effect, 100 complete control)
Method in brief: as §1

blackgrass [14] = experiment: Test C postemergence; format: in vivo, Alopecurus myosuroides; details: 10 days, 0 to 100 scale (0 no effect, 100 complete control)
Method in brief: as §1

barnyardgrass [15] = experiment: Test C postemergence; format: in vivo, Echinochloa crusgalli; details: 10 days, 0 to 100 scale (0 no effect, 100 complete control)
Method in brief: as §1

foxtail, giant [16] = experiment: Test C preemergence; format: in vivo, Setaria faberi
Source text: (§3) Seeds of plant species selected from barnyardgrass (Echinochloa crusgalli), blackgrass (Alopecurus myosuroides), corn (Zea mays), foxtail, giant (giant foxtail, Setaria faberi), green foxtail (Setaria viridis), goosegrass (Eleusine indica), kochia (Bassia scoparia), oat, wild (wild oat, Avena fatua), pigweed, palmer (palmer amaranth, palmer pigweed, Amaranthus palmeri), Pigweed, Redroot (redroot pigweed, Amaranthus retroflexus), ragweed (common ragweed, Ambrosia artemisiifolia), ryegrass, Italian ([…] ryegrass, Lolium multiflorum), soybean (Glycine max), and wheat (Triticum aestivum) were planted into a blend of loam soil and sand and treated preemergence with a directed soil spray using test chemicals formulated in a non-phytotoxic solvent mixture which included a surfactant. At the same time, plants selected from these crops and weed species and also galium (catchweed bedstraw, Galium aparine) and horseweed (Erigeron canadensis) were planted in pots containing the same blend of loam soil and sand and treated with postemergence applications of test chemicals formulated in the same manner. Plants ranged in height from 2 to 10 cm and were in the one- to two-leaf stage for the postemergence treatment. Treated plants and untreated controls were maintained in a greenhouse for 10 days, after which time all treated plants were compared to untreated controls and visually evaluated for injury. Plant response ratings, summarized in Table C, are based on a 0 to 100 scale where 0 is no effect and 100 is complete control. A dash (-) response means no test result.

rice = experiment: Test D flooded paddy test; format: in vivo, Oryza sativa; details: 250 g ai/ha, applied to paddy water, visual rating after 13 to 14 days, scale 0 to 100 (0 no effect, 100 complete control)
Method in brief: as §2

ducksalad = experiment: Test D flooded paddy test; format: in vivo, Heteranthera limosa; details: 250 g ai/ha, applied to paddy water, visual rating after 13 to 14 days, scale 0 to 100 (0 no effect, 100 complete control)
Method in brief: as §2

oat, wild [17] = experiment: Test C preemergence; format: in vivo, Avena fatua
Method in brief: as §1

ryegrass, Italian [18] = experiment: Test C postemergence; format: in vivo, Lolium multiflorum; details: 10 days, 0 to 100 scale (0 no effect, 100 complete control)
Method in brief: as §1

foxtail, giant [19] = experiment: Test C postemergence; format: in vivo, Setaria faberi; details: 10 days, 0 to 100 scale (0 no effect, 100 complete control)
Source text: as §3

pigweed, palmer [20] = experiment: Test C preemergence; format: in vivo, Amaranthus palmeri
Method in brief: as §1

corn [21] = experiment: Test C preemergence; format: in vivo, Zea mays
Method in brief: as §1

soybean [22] = experiment: Test C preemergence; format: in vivo, Glycine max
Method in brief: as §1

sedge, umbrella = experiment: Test D flooded paddy test; format: in vivo, Cyperus difformis; details: 250 g ai/ha, applied to paddy water, visual rating after 13 to 14 days, scale 0 to 100 (0 no effect, 100 complete control)
Method in brief: as §2

wheat [23] = experiment: Test C postemergence; format: in vivo, Triticum aestivum; details: 10 days, 0 to 100 scale (0 no effect, 100 complete control)
Method in brief: as §1

[24] = 500 g ai/ha, preemergence, 0 to 100 scale (0 no effect, 100 complete control)
[25] = Preemergence, 125 g ai/ha, 0 to 100 scale, 0 no effect, 100 complete control

CC(C)c1ncn(-c2cc(C(=O)N3CC(C(F)(F)F)Oc4c(Cl)cccc43)ccn2)n1 (racemic) [Compound 329]
30: Plant response rating, Oat, Wild (oat, wild [4]; Postemergence, 125 g ai/ha) | Plant response rating, Corn (corn [6]; Postemergence, 125 g ai/ha) | Wheat plant response rating (wheat [10]; [24]) | Plant response rating, Oat, Wild (oat, wild [17]; [25])
60: Plant response rating, Blackgrass (blackgrass [1]; [25]) | Ragweed plant response rating (ragweed [8]; [24]) | Plant response rating, Galium (galium; Postemergence, 125 g ai/ha) | Plant response rating, Barnyardgrass (barnyardgrass [15]; 500 g ai/ha, postemergence)
0: Plant response rating, Ragweed (ragweed [8]; [25]) | Plant response rating, Barnyardgrass (Flood) (barnyardgrass [11]) | Plant response rating, Horseweed (horseweed; 500 g ai/ha, postemergence) | Plant response rating, Horseweed (horseweed; Postemergence, 125 g ai/ha) | Plant response rating, Rice (Flood) (rice) | Plant response rating, Ducksalad (Flood) (ducksalad) | Plant response rating, Soybean (soybean [22]; [25]) | Plant response rating, Sedge, Umbrella (Flood) (sedge, umbrella)
40: Plant response rating, Kochia (kochia [3]; [25]) | Plant response rating, Ragweed (ragweed [7]; 500 g ai/ha, postemergence) | Plant response rating, Ragweed (ragweed [7]; Postemergence, 125 g ai/ha) | Corn plant response rating (corn [21]; [24])
50: Plant response rating, Blackgrass (blackgrass [14]; Postemergence, 125 g ai/ha) | Plant response rating, Ryegrass, Italian (ryegrass, Italian [18]; Postemergence, 125 g ai/ha) | Plant response rating, Foxtail, Giant (foxtail, giant [19]; Postemergence, 125 g ai/ha) | Plant response rating, Wheat (wheat [23]; 500 g ai/ha, postemergence)
70: Plant response rating, Barnyardgrass (barnyardgrass [2]; [25]) | Plant response rating, Kochia (kochia [5]; Postemergence, 125 g ai/ha) | Plant response rating, Ryegrass, Italian (ryegrass, Italian [12]; [25]) | Plant response rating, Ryegrass, Italian (ryegrass, Italian [18]; 500 g ai/ha, postemergence)
20: Plant response rating, Pigweed, Palmer (pigweed, palmer [13]; Postemergence, 125 g ai/ha) | Plant response rating, Corn (corn [21]; [25]) | Plant response rating, Wheat (wheat [23]; Postemergence, 125 g ai/ha)
10: Plant response rating, Wheat (wheat [10]; [25]) | Plant response rating, Barnyardgrass (barnyardgrass [15]; Postemergence, 125 g ai/ha)
100: Barnyardgrass plant response rating (barnyardgrass [2]; [24]) | Kochia plant response rating (kochia [3]; [24]) | Plant response rating, Soybean (soybean [9]; 500 g ai/ha, postemergence) | Plant response rating, Soybean (soybean [9]; Postemergence, 125 g ai/ha) | Plant response rating, Galium (galium; 500 g ai/ha, postemergence) | Ryegrass, Italian plant response rating (ryegrass, Italian [12]; [24]) | Foxtail, Giant plant response rating (foxtail, giant [16]; [24]) | Plant response rating, Foxtail, Giant (foxtail, giant [16]; [25]) | Pigweed, Palmer plant response rating (pigweed, palmer [20]; [24])
90: Plant response rating, Kochia (kochia [5]; 500 g ai/ha, postemergence) | Plant response rating, Blackgrass (blackgrass [14]; 500 g ai/ha, postemergence) | Plant response rating, Foxtail, Giant (foxtail, giant [19]; 500 g ai/ha, postemergence) | Plant response rating, Pigweed, Palmer (pigweed, palmer [20]; [25])
80: Blackgrass plant response rating (blackgrass [1]; [24]) | Plant response rating, Oat, Wild (oat, wild [4]; 500 g ai/ha, postemergence) | Plant response rating, Corn (corn [6]; 500 g ai/ha, postemergence) | Plant response rating, Pigweed, Palmer (pigweed, palmer [13]; 500 g ai/ha, postemergence) | Oat, Wild plant response rating (oat, wild [17]; [24]) | Soybean plant response rating (soybean [22]; [24])
